Patent publication US10105357B2, “Indication of antibiotic drugs for preparation of cancer inhibition pharmaceutical composition” (LAUNX BIOMEDICAL CO., LTD., priority 2014, dated 2018)
Where two headings read alike, the source gives them in different places.

Key:
Assay type in all cases: cell-based, human
cancer cell lines = assay: Cell viability analysis (WST-1) on cancer cell lines; conditions: drug 10 μM, 72 hours, WST-1; Table 3
[1] = test system: HI650 (Lung Adenocarcinoma); assay: Cell viability analysis, lung cancer HI650; conditions: for cell viability (survival rate), H1650: drug 10 μM, 72 hours, WST-1, OD450 nm
[2] = test system: A549 (Lung Adenocarcinoma); assay: Cell viability analysis, lung cancer A549; conditions: for cell viability (survival rate), A549: drug 10 μM, 72 hours, WST-1, OD450 nm
[3] = test system: AGS (Gastric Adenocarcinoma); assay: Cell viability analysis, gastric cancer AGS; conditions: for cell viability (survival rate), AGS: drug 10 μM, 72 hours, WST-1, OD450 nm
[4] = test system: MKN-45 (Gastric Adenocarcinoma); assay: Cell viability analysis, gastric cancer MKN-45
[5] = test system: LoVo (Colorectal Adenocarcinoma); assay: Cell viability analysis, colon cancer LoVo; conditions: for cell viability (survival rate), LoVo: drug 10 μM, 72 hours, WST-1, OD450 nm
[6] = test system: A375 (Amelanotic Melanoma); assay: Cell viability analysis, skin cancer A375
[7] = test system: BCC (basal cell carcinoma); assay: Cell viability analysis, skin cancer BCC
[8] = test system: HeLa (Cervix Adenocarcinoma); assay: Cell viability analysis, cervical cancer HeLa; conditions: for cell viability (survival rate), HeLa: drug 10 μM, 72 hours, WST-1, OD450 nm
[9] = test system: TSGH-8301 (Urinary Bladder Carcinoma); assay: Cell viability analysis, bladder cancer TSGH-8301; conditions: for cell viability (survival rate), TSGH: drug 10 μM, 72 hours, WST-1, OD450 nm
T24 = assay: Cell viability analysis, bladder cancer T24
[10] = test system: MCF7 (Mammary Gland, Adenocarcinoma); assay: Cell viability analysis, breast cancer MCF7
[11] = test system: MDA-MB-231 (Mammary Gland, Adenocarcinoma); assay: Cell viability analysis, breast cancer MDA-MB-231
BxPC-3 = assay: Cell viability analysis, pancreatic cancer BxPC-3
AsPC-1 = assay: Cell viability analysis, pancreatic cancer AsPC-1
TOV-21G = assay: Cell viability analysis, ovarian cancer TOV-21G
[12] = test system: SAS (Tongue squamous cell carcinoma); assay: Cell viability analysis, tongue cancer SAS
U-2OS = assay: Cell viability analysis, osteosarcoma U-2OS
[13] = test system: 786-O (Renal adenocarcinoma); assay: Cell viability analysis, renal cancer 786-O
[14] = test system: HL-60 (Acute Promyelocytic Leukemia); assay: Cell viability analysis, leukemia HL-60
[15] = test system: HepG2 (Hepatocellular Carcinoma); assay: Cell viability analysis, hepatic cancer HepG2
[16] = test system: C-33A (Cervical carcinoma); assay: Cell viability analysis, cervical cancer C-33A
NIH: OVCAR-3 = assay: Cell viability analysis, ovarian cancer NIH: OVCAR-3
[17] = test system: PC3 (p53−) (Prostate Adenocarcinoma); assay: Cell viability analysis, prostate cancer PC3
[18] = drug 10 μM, 72 hours, WST-1, OD450 nm

Compound: C[C@@H]1[C@H](O)[C@@H](C)/C=C/C=C/CC/C=C/C=C/C=C/C=C/C(O[C@H]2O[C@H](C)[C@@H](O)[C@H](N)[C@@H]2O)CC2O[C@](O)(CC(O)C(O)CCC(O)CC(O)CC(O)CC(=O)O[C@H]1C)CC(O)C2C(=O)O (stereo partly drawn) [Nystatin (Mycostatin), Nystatin]
- inhibition effect on different cancer cell lines (cancer cell lines): significant inhibition effect
- The results of antibiotic drug inhibiting cancer cell lines (cell viability analysis), H1650 ([1]; H1650, repeated experiment): 72.42
- cell viability (survival rate), H1650 [1]: 65.4
- The results of antibiotic drug inhibiting cancer cell lines (cell viability analysis), A549 ([2]; A549, repeated experiment): 94.3
- cell viability (survival rate), A549 [2]: 37.1
- cell viability (survival rate), AGS [3]: 50.8
- The results of antibiotic drug inhibiting cancer cell lines (cell viability analysis), MKN-45 ([4]; MKN-45, repeated experiment): 95.89
- cell viability (survival rate), MKN-45 [4, 18]: 44.7
- cell viability (survival rate), LoVo [5]: 70.9
- The results of antibiotic drug inhibiting cancer cell lines (cell viability analysis), A375 ([6]; A375, repeated experiment): 99.37
- cell viability (survival rate), A375 [6, 18]: 62.4
- The results of antibiotic drug inhibiting cancer cell lines (cell viability analysis), BCC ([7]; BCC, repeated experiment): 92.4
- cell viability (survival rate), HeLa [8]: 59.2
- The results of antibiotic drug inhibiting cancer cell lines (cell viability analysis), TSGH-8301 ([9]; TSGH-8301, repeated experiment): 91.24
- cell viability (survival rate), TSGH [9]: 42.1
- The results of antibiotic drug inhibiting cancer cell lines (cell viability analysis), T24 (T24; T24, repeated experiment): 76.44
- The results of antibiotic drug inhibiting cancer cell lines (cell viability analysis), MCF-7 ([10]; MCF-7, repeated experiment): 89.88
- cell viability (survival rate), MCF7 [10, 18]: 46.4
- The results of antibiotic drug inhibiting cancer cell lines (cell viability analysis), MDA-MB231 ([11]; MDA-MB231, repeated experiment): 86.09
- The results of antibiotic drug inhibiting cancer cell lines (cell viability analysis), BxPC-3 (BxPC-3; BxPC-3, repeated experiment): 69.94
- The results of antibiotic drug inhibiting cancer cell lines (cell viability analysis), AsPC-1 (AsPC-1; AsPC-1, repeated experiment): 75.83
- The results of antibiotic drug inhibiting cancer cell lines (cell viability analysis), TOV-21G (TOV-21G; TOV-21G, repeated experiment): 74.99
- The results of antibiotic drug inhibiting cancer cell lines (cell viability analysis), SAS ([12]; SAS, repeated experiment): 97.09
- The results of antibiotic drug inhibiting cancer cell lines (cell viability analysis), U2OS (U-2OS; U2OS, repeated experiment): 76.11
- The results of antibiotic drug inhibiting cancer cell lines (cell viability analysis), 786-O ([13]; 786-O, repeated experiment): 89.48
- cell viability (survival rate), HL-60 [14, 18]: 96.2

Compound: CCCCCCCCCCCCCCCC[N+](C)(C)C.[Br-] [Cetrimonium Bromide]
- inhibition effect on different cancer cell lines (cancer cell lines): significant inhibition effect
- cell viability (survival rate), H1650 [1]: 54.6
- The results of antibiotic drug inhibiting cancer cell lines (cell viability analysis), A549 ([2]; A549, repeated experiment): 20.71
- cell viability (survival rate), A549 [2]: 25.0
- The results of antibiotic drug inhibiting cancer cell lines (cell viability analysis), AGS ([3]; AGS, repeated experiment): 20.83
- cell viability (survival rate), AGS [3]: 42.4
- The results of antibiotic drug inhibiting cancer cell lines (cell viability analysis), MKN-45 ([4]; MKN-45, repeated experiment): 35.25
- The results of antibiotic drug inhibiting cancer cell lines (cell viability analysis), HepG2 ([15]; HepG2, repeated experiment): 56.6
- The results of antibiotic drug inhibiting cancer cell lines (cell viability analysis), LoVo ([5]; LoVo, repeated experiment): 51.72
- cell viability (survival rate), LoVo [5]: 55.4
- The results of antibiotic drug inhibiting cancer cell lines (cell viability analysis), A375 ([6]; A375, repeated experiment): 12.93
- The results of antibiotic drug inhibiting cancer cell lines (cell viability analysis), BCC ([7]; BCC, repeated experiment): 23.59
- The results of antibiotic drug inhibiting cancer cell lines (cell viability analysis), HeLa ([8]; HeLa, repeated experiment): 20.73
- cell viability (survival rate), HeLa [8]: 42.6
- The results of antibiotic drug inhibiting cancer cell lines (cell viability analysis), C-33A ([16]; C-33A, repeated experiment): 35.29
- The results of antibiotic drug inhibiting cancer cell lines (cell viability analysis), TSGH-8301 ([9]; TSGH-8301, repeated experiment): 22.33
- cell viability (survival rate), TSGH [9]: 34.8
- The results of antibiotic drug inhibiting cancer cell lines (cell viability analysis), T24 (T24; T24, repeated experiment): 19.1
- The results of antibiotic drug inhibiting cancer cell lines (cell viability analysis), MCF-7 ([10]; MCF-7, repeated experiment): 47.47
- The results of antibiotic drug inhibiting cancer cell lines (cell viability analysis), MDA-MB231 ([11]; MDA-MB231, repeated experiment): 33.73
- The results of antibiotic drug inhibiting cancer cell lines (cell viability analysis), BxPC-3 (BxPC-3; BxPC-3, repeated experiment): 25.89
- The results of antibiotic drug inhibiting cancer cell lines (cell viability analysis), NIH-OVCAR-3 (NIH: OVCAR-3; NIH-OVCAR-3, repeated experiment): 56.47
- The results of antibiotic drug inhibiting cancer cell lines (cell viability analysis), TOV-21G (TOV-21G; TOV-21G, repeated experiment): 15.69
- The results of antibiotic drug inhibiting cancer cell lines (cell viability analysis), SAS ([12]; SAS, repeated experiment): 21.73
- The results of antibiotic drug inhibiting cancer cell lines (cell viability analysis), 786-O ([13]; 786-O, repeated experiment): 16.85

Compound: Colistimethate Sodium
- inhibition effect on different cancer cell lines (cancer cell lines): significant inhibition effect
- The results of antibiotic drug inhibiting cancer cell lines (cell viability analysis), H1650 [1]: 82.62
- The results of antibiotic drug inhibiting cancer cell lines (cell viability analysis), A549 [2]: 89.46
- The results of antibiotic drug inhibiting cancer cell lines (cell viability analysis), AGS [3]: 87.05
- The results of antibiotic drug inhibiting cancer cell lines (cell viability analysis), MKN-45 [4]: 104.8
- The results of antibiotic drug inhibiting cancer cell lines (cell viability analysis), HepG2 [15]: 107.4
- The results of antibiotic drug inhibiting cancer cell lines (cell viability analysis), LoVo [5]: 85.06
- The results of antibiotic drug inhibiting cancer cell lines (cell viability analysis), A375 [6]: 94.89
- The results of antibiotic drug inhibiting cancer cell lines (cell viability analysis), BCC [7]: 77.04
- The results of antibiotic drug inhibiting cancer cell lines (cell viability analysis), HeLa [8]: 77.79
- The results of antibiotic drug inhibiting cancer cell lines (cell viability analysis), C-33A [16]: 107.5
- The results of antibiotic drug inhibiting cancer cell lines (cell viability analysis), PC-3 [17]: 101.1
- The results of antibiotic drug inhibiting cancer cell lines (cell viability analysis), TSGH-8301 [9]: 111.7
- The results of antibiotic drug inhibiting cancer cell lines (cell viability analysis), T24 (T24): 108.3
- The results of antibiotic drug inhibiting cancer cell lines (cell viability analysis), MCF-7 [10]: 74.61
- The results of antibiotic drug inhibiting cancer cell lines (cell viability analysis), MDA-MB231 [11]: 76.75
- The results of antibiotic drug inhibiting cancer cell lines (cell viability analysis), BxPC-3 (BxPC-3): 76.87
- The results of antibiotic drug inhibiting cancer cell lines (cell viability analysis), AsPC-1 (AsPC-1): 82.31
- The results of antibiotic drug inhibiting cancer cell lines (cell viability analysis), NIH-OVCAR-3 (NIH: OVCAR-3): 103.4
- The results of antibiotic drug inhibiting cancer cell lines (cell viability analysis), TOV-21G (TOV-21G): 64.02
- The results of antibiotic drug inhibiting cancer cell lines (cell viability analysis), SAS [12]: 77.78
- The results of antibiotic drug inhibiting cancer cell lines (cell viability analysis), U2OS (U-2OS): 83.33
- The results of antibiotic drug inhibiting cancer cell lines (cell viability analysis), 786-O [13]: 86.46

Compound: CN(C)c1ccc(C(=C2C=CC(=[N+](C)C)C=C2)c2ccc(N(C)C)cc2)cc1 [Crystal violet]
- inhibition effect on different cancer cell lines (cancer cell lines): significant inhibition effect
- viability at 10 µM ([1]; Homo sapiens, NCI-H1650, 72 h, read-out: cell viability (survival rate), H1650, drug 10 μM, 72 hours, WST-1, OD450 nm): 68.5%
- viability at 10 µM ([2]; Homo sapiens, A549, 72 h, read-out: cell viability (survival rate), A549, drug 10 μM, 72 hours, WST-1, OD450 nm): 37.5%
- viability at 10 µM ([3]; Homo sapiens, 72 h, read-out: cell viability (survival rate), AGS, drug 10 μM, 72 hours, WST-1, OD450 nm): 52.7%
- viability at 10 µM ([4]; Homo sapiens, MKN-45, 72 h, read-out: cell viability (survival rate), MKN-45, drug 10 μM, 72 hours, WST-1, OD450 nm): 44.8%
- viability at 10 µM ([15]; Homo sapiens, HepG2, 72 h, read-out: cell viability (survival rate), HepG2, drug 10 μM, 72 hours, WST-1, OD450 nm): 70.3%
- viability at 10 µM ([5]; Homo sapiens, LoVo, 72 h, read-out: cell viability (survival rate), LoVo, drug 10 μM, 72 hours, WST-1, OD450 nm): 62.3%
- viability at 10 µM ([6]; Homo sapiens, A-375, 72 h, read-out: cell viability (survival rate), A375, drug 10 μM, 72 hours, WST-1, OD450 nm): 32%
- viability at 10 µM ([8]; Homo sapiens, HeLa, 72 h, read-out: cell viability (survival rate), HeLa, drug 10 μM, 72 hours, WST-1, OD450 nm): 38.9%
- viability at 10 µM ([17]; Homo sapiens, 72 h, read-out: cell viability (survival rate), PC3, drug 10 μM, 72 hours, WST-1, OD450 nm): 31.8%
- viability at 10 µM ([9]; Homo sapiens, 72 h, read-out: cell viability (survival rate), TSGH, drug 10 μM, 72 hours, WST-1, OD450 nm): 44.1%
- viability at 10 µM ([10]; Homo sapiens, MCF7, 72 h, read-out: cell viability (survival rate), MCF7, drug 10 μM, 72 hours, WST-1, OD450 nm): 46%
- viability at 10 µM ([14]; Homo sapiens, HL-60, 72 h, read-out: cell viability (survival rate), HL-60, drug 10 μM, 72 hours, WST-1, OD450 nm): 37.3%
